Measurements as given in patent US4332794A, “6"-Deoxydibekacin, 4",6"-dideoxydibekacin and 1-N-aminoacyl derivatives thereof, and the production of these new compounds” (Zaidan Hojin Biseibutsu Kagaku Kenkyu Kai, priority 1979, dated 1982).
≈ marks a conversion by molar mass, not a printed value. Where two headings read alike, the source gives them in different places.

What was measured:
[1] = tested on: Staphylococcus aureus APO1; assay: MIC, serial dilution on nutrient agar; assay type: cell-based
[2] = tested on: Staphylococcus epidermidis 109; assay: MIC, serial dilution on nutrient agar; assay type: cell-based
[3] = tested on: Mycrococcus flavus FDA 16; assay: MIC, serial dilution on nutrient agar; assay type: cell-based; conditions: 18 h
Bacillus anthracis = assay: microbe, parasite or virus in culture; assay type: cell-based; conditions: 18 h
Escherichia coli NIHJ = assay: MIC, serial dilution on nutrient agar; assay type: cell-based
Escherichia coli K-12 = assay: MIC, serial dilution on nutrient agar; assay type: cell-based
Escherichia coli K-12 R5 = assay: microbe, parasite or virus in culture; assay type: cell-based; conditions: K12R5, 18 h
[4] = tested on: Escherichia coli K-12 R 388; assay: MIC, serial dilution on nutrient agar; assay type: cell-based; conditions: K12R388, 18 h
[5] = tested on: Escherichia coli K-12 ML 1410; assay: MIC, serial dilution on nutrient agar; assay type: cell-based; conditions: K12ML1410, nutrient agar, 37° C., 18 hours, read-out: MIC
[6] = tested on: Escherichia coli K-12 LA 290 R55; assay: microbe, parasite or virus in culture; assay type: cell-based; conditions: K12LA290R55, 18 h
[7] = tested on: Escherichia coli K-12 LA 290 R56; assay: microbe, parasite or virus in culture; assay type: cell-based; conditions: K12LA290R56, 18 h
Escherichia coli W677 = assay: MIC, serial dilution on nutrient agar; assay type: cell-based
[8] = tested on: Escherichia coli JR66/W677; assay: MIC, serial dilution on nutrient agar; assay type: cell-based
Salmonella typhi F63 = assay: MIC, serial dilution on nutrient agar; assay type: cell-based; conditions: Salmonella enterica, 18 h
Proteus rettgeri GN311 = assay: MIC, serial dilution on nutrient agar; assay type: cell-based; conditions: Providencia rettgeri, GN311, 18 h
[9] = tested on: Escherichia coli K-12 C 600R/35; assay: MIC, serial dilution on nutrient agar; assay type: cell-based; conditions: K12C600R/35, 37° C., 18 hours
Method: (§1) The minimum inhibitory concentrations (mcg/ml) of 6"-deoxydibekacin (abbreviated as 6"-DDKB), 4",6"-dideoxydibekacin (abbreviated as 4",6"-DDKB), 1-N-(L-4-amino-2-hydroxybutyryl)-6"-deoxydibekacin (abbreviated as AHB-6"-DDKB) and 1-N-(L-4-amino-2-hydroxybutyryl)-4",6"-dideoxydibekacin (abbreviated as AHB-4",6"-DDKB) of this invention against various microorganisms were determined according to serial dilution method on a nutrient agar medium at 37° C., the estimation being made after 18 hours incubation. For comparison purpose, the minimum inhibitory concentrations of dibekacin (abbreviated as DKB) were also determined in the same manner as stated above.

[10] = tested on: Escherichia coli K-12 J5B 11-2; assay: MIC, serial dilution on nutrient agar; assay type: cell-based; conditions: K12J5B112, 37° C., 18 hours
Method: as §1

[11] = tested on: Escherichia coli K-12 ML 1629; assay: MIC, serial dilution on nutrient agar; assay type: cell-based; conditions: K12ML1629, 37° C., 18 hours
Method: as §1

[12] = tested on: Escherichia coli K-12 ML 1630; assay: MIC, serial dilution on nutrient agar; assay type: cell-based; conditions: K12ML1630, 37° C., 18 hours
Method: as §1

[13] = tested on: Klebsiella pneumoniae PCI 602; assay: MIC, serial dilution on nutrient agar; assay type: cell-based; conditions: PCI602, 37° C., 18 hours
Method: as §1

Proteus vulgaris OX19 = assay: MIC, serial dilution on nutrient agar; assay type: cell-based; conditions: 37° C., 18 hours
Method: as §1

Providencia 2991 = assay: MIC, serial dilution on nutrient agar; assay type: cell-based; conditions: 37° C., 18 hours
Method: as §1

[14] = tested on: Pseudomonas aeruginosa 21-75; assay: MIC, serial dilution on nutrient agar; assay type: cell-based; conditions: 2175, 37° C., 18 hours
Method: as §1

[15] = tested on: Pseudomonas aeruginosa GN315; assay: MIC, serial dilution on nutrient agar; assay type: cell-based; conditions: 37° C., 18 hours
Method: as §1

[16] = tested on: Pseudomonas maltophilia GN907; assay: MIC, serial dilution on nutrient agar; assay type: cell-based; conditions: Stenotrophomonas maltophilia, 37° C., 18 hours
Method: as §1

Serratia 4 = assay: MIC, serial dilution on nutrient agar; assay type: cell-based; conditions: 37° C., 18 hours
Method: as §1

Serratia SOU = assay: MIC, serial dilution on nutrient agar; assay type: cell-based; conditions: 37° C., 18 hours
Method: as §1

Serratia marcescens = assay: MIC, serial dilution on nutrient agar; assay type: cell-based; conditions: 37° C., 18 hours
Method: as §1

[17] = tested on: Shigella flexneri 4b JS11811; assay: MIC, serial dilution on nutrient agar; assay type: cell-based; conditions: 4BJS11811, 37° C., 18 hours
Method: as §1

Shigella sonnei JS11746 = assay: MIC, serial dilution on nutrient agar; assay type: cell-based; conditions: 37° C., 18 hours
Method: as §1

[18] = tested on: Staphylococcus aureus 209P; assay: MIC, serial dilution on nutrient agar; assay type: cell-based; conditions: 37° C., 18 hours
Method: as §1

Providencia Pv 16 = assay: MIC, serial dilution on nutrient agar; assay type: cell-based
[19] = tested on: Pseudomonas aeruginosa No. 12; assay: MIC, serial dilution on nutrient agar; assay type: cell-based
[20] = tested on: Pseudomonas aeruginosa H9; assay: MIC, serial dilution on nutrient agar; assay type: cell-based; conditions: H9, 18 h
[21] = tested on: Pseudomonas aeruginosa TI-13; assay: MIC, serial dilution on nutrient agar; assay type: cell-based; conditions: TI13, 18 h
[22] = tested on: Pseudomonas aeruginosa 99; assay: MIC, serial dilution on nutrient agar; assay type: cell-based
[23] = tested on: Pseudomonas aeruginosa ROS134/PU21; assay: microbe, parasite or virus in culture; assay type: cell-based; conditions: ROS134/PU21, 18 h
[24] = tested on: Pseudomonas aeruginosa K-Ps102; assay: MIC, serial dilution on nutrient agar; assay type: cell-based
intravenous LD50 in mice = conditions: mouse, in vivo, estimated

Row | SMILES | MIC [3] [µg/mL] | MIC (Bacillus anthracis) [µg/mL] | MIC (Escherichia coli K-12 R5) [µg/mL] | MIC [4] [µg/mL] | MIC [5] [µg/mL] | MIC [6] [µg/mL] | MIC [7] [µg/mL] | MIC (Salmonella typhi F63) [µg/mL] | MIC (Proteus rettgeri GN311) [µg/mL] | MIC [9] [µg/mL] | MIC [10] [µg/mL] | MIC [11] [µg/mL] | MIC [12] [µg/mL] | MIC [13] [µg/mL] | MIC (Proteus vulgaris OX19) [µg/mL] | MIC (Providencia 2991) [µg/mL] | MIC [14] [µg/mL] | MIC [15] [µg/mL] | MIC [16] [µg/mL] | MIC (Serratia 4) [µg/mL] | other results
1 | NC[C@@H]1CC[C@@H](N)[C@@H](O[C@H]2[C@H](O)[C@@H](O[C@H]3O[C@H](CO)[C@@H](O)[C@H](N)[C@H]3O)[C@H](N)C[C@@H]2N)O1 [DKB, 3',4'-dideoxykanamycin B, reference compound] | 100 (≈ 221 µM) | < 0.2 | > 100 | 1.56 (≈ 3.45 µM) | 1.56 (≈ 3.45 µM) | 100 (≈ 221 µM) | 25 (≈ 55.4 µM) | 0.78 (≈ 1.73 µM) | 6.25 (≈ 13.8 µM) | 1.56 (≈ 3.45 µM) | 3.13 (≈ 6.93 µM) | 3.13 (≈ 6.93 µM) | 3.13 (≈ 6.93 µM) | 0.78 (≈ 1.73 µM) | 0.78 (≈ 1.73 µM) | > 100 | > 100 | > 100 | > 100 | 100 (≈ 221 µM) | MIC ([1]; APO1, nutrient agar, 37° C., 18 hours, read-out: MIC): 1.56 µg/mL (≈ 3.45 µM); MIC ([2]; Staphylococcus epidermidis, 109, nutrient agar, 37° C., 18 hours, read-out: MIC): 1.56 µg/mL (≈ 3.45 µM); MIC (Escherichia coli NIHJ; nutrient agar, 37° C., 18 hours, read-out: MIC): 1.56 µg/mL (≈ 3.45 µM); MIC (Escherichia coli K-12; K12, nutrient agar, 37° C., 18 hours, read-out: MIC): 1.56 µg/mL (≈ 3.45 µM); MIC (Escherichia coli W677; W677, nutrient agar, 37° C., 18 hours, read-out: MIC): 1.56 µg/mL (≈ 3.45 µM); MIC ([8]; JR66/W677, 18 h): 100 µg/mL (≈ 221 µM); MIC (Serratia SOU): > 100 µg/mL; MIC (Serratia marcescens): 100 µg/mL (≈ 221 µM); MIC [17]: 3.13 µg/mL (≈ 6.93 µM); MIC (Shigella sonnei JS11746): 6.25 µg/mL (≈ 13.8 µM); MIC [18]: 0.78 µg/mL (≈ 1.73 µM); MIC (Providencia Pv 16; PV16, 18 h): > 100 µg/mL; MIC ([19]; NO.12, 18 h): 6.25 µg/mL (≈ 13.8 µM); MIC [20]: 6.25 µg/mL (≈ 13.8 µM); MIC [21]: 6.25 µg/mL (≈ 13.8 µM); MIC ([22]; Pseudomonas aeruginosa, 99, 18 h): 50 µg/mL (≈ 111 µM); MIC [23]: > 100 µg/mL; MIC ([24]; KPS102, 18 h): 6.25 µg/mL (≈ 13.8 µM)
2 | C[C@H]1O[C@H](O[C@@H]2[C@@H](O)[C@H](O[C@H]3O[C@H](CN)CC[C@H]3N)[C@@H](N)C[C@H]2NC(=O)[C@@H](O)CCN)[C@H](O)[C@@H](N)[C@@H]1O [AHB-6"-DDKB, 1-N-(L-4-amino-2-hydroxybutyryl)-6"-deoxydibekacin] | 1.56 (≈ 2.91 µM) | 0.2 (≈ 0.373 µM) | 50 (≈ 93.2 µM) | 0.78 (≈ 1.45 µM) | 3.13 (≈ 5.83 µM) | 3.13 (≈ 5.83 µM) | 1.56 (≈ 2.91 µM) | 0.39 (≈ 0.727 µM) | 50 (≈ 93.2 µM) | 1.56 (≈ 2.91 µM) | 1.56 (≈ 2.91 µM) | 1.56 (≈ 2.91 µM) | 3.13 (≈ 5.83 µM) | 1.56 (≈ 2.91 µM) | 0.78 (≈ 1.45 µM) | 100 (≈ 186 µM) | 100 (≈ 186 µM) | 50 (≈ 93.2 µM) | > 100 | 6.25 (≈ 11.6 µM) | MIC ([1]; APO1, 18 h): 1.56 µg/mL (≈ 2.91 µM); MIC ([2]; Staphylococcus epidermidis, 109, 18 h): 1.56 µg/mL (≈ 2.91 µM); MIC (Escherichia coli NIHJ; 18 h): 1.56 µg/mL (≈ 2.91 µM); MIC (Escherichia coli K-12; K12, 18 h): 1.56 µg/mL (≈ 2.91 µM); MIC (Escherichia coli W677; W677, 18 h): 1.56 µg/mL (≈ 2.91 µM); MIC ([8]; JR66/W677, nutrient agar, 37° C., 18 hours, read-out: MIC): 3.13 µg/mL (≈ 5.83 µM); MIC (Serratia SOU): 100 µg/mL (≈ 186 µM); MIC (Serratia marcescens): 50 µg/mL (≈ 93.2 µM); MIC [17]: 6.25 µg/mL (≈ 11.6 µM); MIC (Shigella sonnei JS11746): 6.25 µg/mL (≈ 11.6 µM); MIC [18]: 1.56 µg/mL (≈ 2.91 µM); MIC (Providencia Pv 16; PV16, nutrient agar, 37° C., 18 hours, read-out: MIC): 25 µg/mL (≈ 46.6 µM); MIC ([19]; NO.12, nutrient agar, 37° C., 18 hours, read-out: MIC): 25 µg/mL (≈ 46.6 µM); MIC [20]: 6.25 µg/mL (≈ 11.6 µM); MIC [21]: 6.25 µg/mL (≈ 11.6 µM); MIC ([22]; Pseudomonas aeruginosa, 99, nutrient agar, 37° C., 18 hours, read-out: MIC): 12.5 µg/mL (≈ 23.3 µM); MIC [23]: > 100 µg/mL; MIC ([24]; KPS102, nutrient agar, 37° C., 18 hours, read-out: MIC): 12.5 µg/mL (≈ 23.3 µM); LD50 (intravenous LD50 in mice): > 80 mg/kg
